Reference: US20220054588A1, “USE OF SAP FOR THE TREATMENT OF EUROTIOMYCETES FUNGI INFECTIONS” (HUMANITAS MIRASOLE S.P.A., priority 2018, published 2022)

B1: recombinant murine SAP: recombinant murine SAP from mouse myeloma cell line NSO (R&D Systems) (protein, UniProt P12246 21-224, looked up)
Serum amyloid P-component: QTDLKRKVFVFPRESETDHVKLIPHLEKPLQNFTLCFRTYSDLSRSQSLFSYSVKGRDNELLIYKEKVGEYSLYIGQSKVTVRGMEEYLSPVHLCTTWESSSGIVEFWVNGKPWVKKSLQREYTVKAPPSIVLGQEQDNYGGGFQRSQSFVGEFSDLYMWDYVLTPQDILFVYRDSPVNPNILNWQALNYEINGYVVIRPRVWD

Tests used:
A. fumigatus conidia = assay: FACS binding of biotin-conjugated murine SAP to A. fumigatus conidia, with competition; set-up: species or system Aspergillus fumigatus; conditions: Sap 10 μg/ml
Description: FIG. 1 depicts the interaction of SAP with A. fumigatus conidia in mice. a) induction of SAP circulating levels after i.t. injection of 5×10^7 A. fumigatus (AF) conidia; LPS, 0.8 mg/Kg. Mean±SD. c) FACS analysis of binding of biotin-conjugated (b-) murine SAP (Sap; 10 μg/ml) to viable dormant or germinating conidia of AF (1×10^8). Human SAP (50 μg/ml) and CRP (50 μg/ml) were also used. Mean±SD of one quadruplicate experiment of two performed.
FIG. 10 depicts the susceptibility to A. fumigatus associated with single or double deficiency for SAP and PTX3. a and b, survival of wt and Apcs^−/−, Ptx3^−/− and Apcs^−/−, Ptx3^−/− mice after i.t. injection of 1×10^8 (a) or 5×10^7 (b) conidia. a, wt, n=9 (a, b); n=9 (a, b); Ptx3^−/−, n=7 (a) or n=10 (b); Ptx3^−/−, n=5 (a) or n=12 (b). a, b, P<0.05, wt vs. Apcs^−/− P<0.01 wt vs. Apcs^−/−, Ptx3^−/−; P=0.06, Apcs^−/−, Ptx3^−/− vs. Ptx3^−/− (Mantel-Cox test). a) Curves of wt and Apcs^−/− refer to the same ones shown in FIG. 2a-c FACS analysis of Sap (range from 0.1 to 10 μg/ml) binding to viable AF conidia (1×10^8) in presence of Ptx3 (50 μg/ml). An anti-Sap monoclonal antibody (non-reactive to Ptx3) was used. Mean±SD of a triplicate. **, P<0.01;***, P<0.005;****, P<0.0001 (unpaired t-test).
(§1) Binding of SAP. Conidia of A. fumigatus and A. flavus (1×10^8 CFU) were cultured 4 and 16 h under static condition in Sabouraud medium to respectively allow conidia swelling and germination. Blastospores and yeast of Candida albicans were prepared as previously described (Santus et al., 2017). Yeast (8×10^6/ml) were incubated at 37° C. for hyphal induction. Formation of hyphae was evaluated under a microscope at different time points until its amount was assessed at 95%. […] After extensive washing, samples were incubated (30 min, r. t.) with Alexa Fluor® 647-conjugated streptavidin and binding was evaluated by FACS as frequency and MFI and visualized by confocal microscopy as described. […]

Candida albicans = assay: FACS binding of biotin-conjugated murine SAP to Candida albicans, with competition
Description: FIG. 16 depicts the binding of Sap on Candida. a) FACS analysis of binding of biotin-conjugated (b-) murine SAP (Sap; 10 μg/ml) to bastospore, yeast and hyphae of Candida albicans (1×10^8). Human SAP (50 μg/ml) was also used to compete binding of Sap. […] Survival of wt and Apcs^−/− mice after retroorbital injection of 1×10^6 blastospores of Candida albicans. wt, n=10; Apcs^−/− n=12.
as §1, with “95%. After washing with PBS^2+, pH 7.4, containing 0.01% (vol/vol) Tween-20 ® (Merck-Millipore), Cells (1×10^7 CFU) were incubated (1 h, r. t.) with biotin-labelled murine SAP (R&D Systems) at concentrations ranging from 0.1 to 10 μg/ml in PBS^2+, pH 7.4, containing 2% BSA (Sigma-Aldrich).” for “95%.”

Row | Molecule | competition of murine SAP binding to A. fumigatus conidia (A. fumigatus conidia; competitor 50 μg/ml) | competition of Sap binding to Candida albicans (Candida albicans; competitor 50 μg/ml) | binding to A. fumigatus conidia (A. fumigatus conidia; FACS and confocal microscopy) | binding to blastospores, yeasts and hyphae of Candida albicans (Candida albicans; Sap 10 μg/ml)
1 | human native SAP: Native SAP from human serum purchased by Merck-Millipore; Serum Amyloid P component, SEQ ID NO: 1 | competed | competed | – | –
2 | B1 | – | – | bound viable dormant, swollen and germinated conidia | bound with low affinity
